Consider four molecules from patent US8575091B1, “Amylin analogues and pharmaceutical compositions thereof” (Novo Nordisk A/S, priority 2012, dated 2013).

Each structure is given as a SMILES string. Numbered stars: 1 amine (or outer) side, 2 acyl side, 3 side chain; on linkers, the order of the positions; unused ones are H or OH. Bridge positions count the residues as written; N and C are the ends. Side chains are listed from the residue outwards. Peptide text beside a SMILES is read from it. * marks the point of attachment. C20 diacid = O=C(O)CCCCCCCCCCCCCCCCCCC(=O)*; γGlu = O=C(O)[C@H](CCC(=O)[*:2])N[*:1]; AEEA = NCCOCCOCC(=O)O

Data set [1] has as its target T1, human amylin receptor (amylin 3(a) receptor: human calcitonin receptor + RAMP-3) (Homo sapiens, UniProt O60896+P30988).
T1 construct: expressed in transfected cells
T1 sequence (P30988 25-474): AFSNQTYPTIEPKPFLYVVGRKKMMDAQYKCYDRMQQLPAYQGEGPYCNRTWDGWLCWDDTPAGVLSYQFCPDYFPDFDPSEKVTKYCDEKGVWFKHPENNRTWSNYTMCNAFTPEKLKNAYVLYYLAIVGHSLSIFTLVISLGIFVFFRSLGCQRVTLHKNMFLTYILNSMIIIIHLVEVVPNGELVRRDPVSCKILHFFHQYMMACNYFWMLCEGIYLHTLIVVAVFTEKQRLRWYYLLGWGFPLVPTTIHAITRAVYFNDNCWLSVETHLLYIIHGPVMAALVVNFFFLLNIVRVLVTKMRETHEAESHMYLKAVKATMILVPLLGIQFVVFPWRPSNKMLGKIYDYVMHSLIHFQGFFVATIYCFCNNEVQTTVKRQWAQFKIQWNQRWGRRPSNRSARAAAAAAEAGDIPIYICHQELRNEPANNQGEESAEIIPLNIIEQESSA
T1 sequence (O60896 24-148 partner): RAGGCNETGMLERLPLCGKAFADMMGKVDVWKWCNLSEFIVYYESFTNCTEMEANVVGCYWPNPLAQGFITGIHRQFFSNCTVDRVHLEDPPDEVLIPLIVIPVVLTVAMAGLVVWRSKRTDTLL
The experiment in a line: Assay (II)a functional assay, human amylin receptor (CRE luciferase, BHK cells). The class given is cell-based. As to conditions: for EC50: functional assay, human amylin receptor, read-out: hAmylin-R funct. EC50.

Data set [2] addresses T2, human calcitonin receptor (Homo sapiens, UniProt P30988).
T2 construct: expressed in transfected cells
T2 sequence (P30988 25-474): T1 sequence (P30988 25-474)
Put plainly: Assay (II)a functional assay, human calcitonin receptor (CRE luciferase, BHK cells).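 Also: luminescence from a CRE-driven luciferase reporter, read by single photon counting after cells were exposed to test samples for 3 h at 37 °C under 5% CO2.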 The class given is cell-based. As to conditions: read-out: hCTR funct. EC50.

A further data set addresses T3, human amylin receptor (Homo sapiens, UniProt O60896+P30988).
T3 construct: expressed in transfected cells
T3 sequence (P30988 25-474): T1 sequence (P30988 25-474)
T3 sequence (O60896 24-148 partner): T1 sequence (O60896 24-148 partner)
Put plainly: Assay (V) binding to the human amylin receptor (SPA, 125I-rat amylin). The following applies: human amylin receptor membranes, SPA; read-out: hAmylin-R bind IC50. The gist of the method: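 SPA competition binding on membranes from Amylin 3(a)/CRE-luc cells, 35 ng/μL membranes with 0.05 mg/well beads. Buffer 50 mM Hepes pH 7.4, 1 mM CaCl2, 5 mM MgCl2, 0.1% OA, 0.02% Tween20. IC50 from one-site competition fit as affinity measure.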

In data set [3] the target is T2, human calcitonin receptor. Put plainly: Assay (VII) binding to the human calcitonin receptor (SPA, 125I-Calcitonin).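 Also: cell membranes coupled to SPA beads, competitive displacement read by scintillation counting, IC50 derived from a one-site competition fit as a measure of receptor affinity.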 The following applies: read-out: hCTR bind IC50.
The subject of the next data set is Wistar rats. The experiment in a line: Assay (XII) single subcutaneous administration, plasma calcium in rats. The format is in vivo, rat. As to conditions: for Plasma calcium red (%) 0-12 h: single s.c., maximal reduction 0-12 h, compared to vehicle. How it is done: Assay (XII)—Effect from Single Subcutaneous Administration of Analogue on Plasma Calcium in Rats
Male Wistar rats (Taconic Europe, ˜250 g at test date) were acclimatized to handling prior to the study. Rats were divided in groups of five and subcutaneously dosed with test compound at time=0. At time T=−15 min; 1 h, 2 h, 4 h, 7 h, 12 h, and 24 h a blood sample was obtained and heparin stabilized plasma was analysed for total calcium (Cobas, Hitachi). Data are illustrated in graphs as mean±SEM.

Data set [4] can be described thus: Assay (IV) determination of solubility. The format is physicochemical. As to conditions: for Solubility pH 6.5 Concentration (μM): pH 6.5, 18 hours room temperature; for Solubility pH 7.0 Concentration (μM): pH 7.0, 18 hours room temperature; for Solubility pH 7.5 Concentration (μM): pH 7.5, 18 hours room temperature; for Solubility pH 8.0 Concentration (μM): pH 8.0, 18 hours room temperature. How it is done: Assay (IV)—Determination of Solubility
The polypeptide was dissolved in water at ˜500 nmol/ml and mixed 1:1 with a series of buffers (100 mM glycylglycine pH 3.0, 100 mM glycylglycine pH 4.0, 100 mM glycylglycine pH 5.0, 100 mM bistrispropane pH 6.0, 100 mM bistrispropane pH 6.5, 100 mM bistrispropane pH 7.0, 100 mM bistrispropane pH 7.5, 100 mM bistrispropane pH 8.0). After 18 hours at room temperature the samples were centrifuged and the polypeptide concentration determined by UPLC.

As usually defined, the EC50 is the concentration at which the effect is half-maximal. Usually IC50 stands for the concentration that gives 50% inhibition.

Consider `CC[C@H](C)[C@H](NC(=O)[C@H](C)NC(=O)CNC(=O)[C@H](Cc1ccccc1)NC(=O)[C@H](CC(N)=O)NC(=O)[C@@H]1CCCN1C(=O)[C@H](CO)NC(=O)[C@H](CO)NC(=O)[C@H](Cc1c[nH]cn1)NC(=O)[C@H](CCCNC(=N)N)NC(=O)[C@H](CC(C)C)NC(=O)[C@H](Cc1ccccc1)NC(=O)[C@H](CCC(=O)O)NC(=O)[C@H](C)NC(=O)[C@H](CC(C)C)NC(=O)[C@H](CCCNC(=N)N)NC(=O)[C@H](CCC(N)=O)NC(=O)[C@@H](NC(=O)[C@H](C)NC(=O)[C@@H]1CSSC[C@H](NC(=O)[C@@H](N)CCCCNC(=O)CC[C@H](NC(=O)CCCCCCCCCCCCCCCCCCC(=O)O)C(=O)O)C(=O)N[C@@H](CC(N)=O)C(=O)N[C@@H]([C@@H](C)O)C(=O)N[C@@H](C)C(=O)N[C@@H]([C@@H](C)O)C(=O)N1)[C@@H](C)O)C(=O)N1CCC[C@H]1C(=O)N[C@@H](CO)C(=O)N[C@@H](CO)C(=O)N[C@H](C(=O)N[C@@H](CC(N)=O)C(=O)N[C@H](C(=O)NCC(=O)N1CCC[C@H]1C(=O)N[C@@H](Cc1c[nH]cn1)C(=O)N[C@H](C(=O)N[C@@H](Cc1ccc(O)cc1)C(N)=O)[C@@H](C)O)C(C)C)[C@@H](C)O` [Example 118] (H-K([γGlu-C20 diacid])CNTATCATQRLAEFLRHSSPNFGAIPSSTNVGPHTY-NH2; disulfide 2-7), for which the EC50 in data set [1] came out at 0.101 nM; in data set [2], 1.45 nM. In addition, the IC50 amounted to 0.179 nM on human amylin receptor and 3.8 nM in data set [3]. The “Plasma calcium red (%) 0-12 h” value with Wistar rats (30 nmol/kg) was 26%.
As to `CC[C@H](C)[C@H](NC(=O)[C@H](C)NC(=O)CNC(=O)[C@H](Cc1ccccc1)NC(=O)[C@H](CC(N)=O)NC(=O)[C@@H]1CCCN1C(=O)[C@H](CO)NC(=O)[C@H](CO)NC(=O)[C@H](Cc1c[nH]cn1)NC(=O)[C@H](CCCNC(=N)N)NC(=O)[C@H](CC(C)C)NC(=O)[C@H](Cc1ccccc1)NC(=O)[C@H](CC(=O)O)NC(=O)[C@H](C)NC(=O)[C@H](CC(C)C)NC(=O)[C@H](CCCNC(=N)N)NC(=O)[C@H](CCC(N)=O)NC(=O)[C@@H](NC(=O)[C@H](C)NC(=O)[C@@H]1CSSC[C@H](NC(=O)[C@@H](N)CCCCNC(=O)CC[C@H](NC(=O)CC[C@H](NC(=O)CCCCCCCCCCCCCCCCCCC(=O)O)C(=O)O)C(=O)O)C(=O)N[C@@H](CC(N)=O)C(=O)N[C@@H]([C@@H](C)O)C(=O)N[C@@H](C)C(=O)N[C@@H]([C@@H](C)O)C(=O)N1)[C@@H](C)O)C(=O)N1CCC[C@H]1C(=O)N[C@@H](CO)C(=O)N[C@@H](CO)C(=O)N[C@H](C(=O)N[C@@H](CC(N)=O)C(=O)N[C@H](C(=O)NCC(=O)N[C@@H](CO)C(=O)N[C@@H](CC(=O)O)C(=O)N[C@H](C(=O)N[C@@H](Cc1ccc(O)cc1)C(N)=O)[C@@H](C)O)C(C)C)[C@@H](C)O` [Example 2] (H-K([γGlu-γGlu-C20 diacid])CNTATCATQRLADFLRHSSPNFGAIPSSTNVGSDTY-NH2; disulfide 2-7), the values for the half-maximal effective concentration (EC50) in data set [1] and in data set [2] were 0.182 nM and 3 nM, respectively. For the same molecule, the half-inhibitory concentration (IC50) on human amylin receptor is 0.411 nM; in data set [3] it was 19.5 nM. Also, the “Plasma calcium red (%) 0-12 h” value with Wistar rats (100 nmol/kg) is 9%. In the data set on Wistar rats (single subcutaneous, over 24 hours, 100 nmol/kg), the “suppression of plasma calcium level relative to vehicle” value is reported as “does not trigger a notable suppression of the calcium level”.
For `CC[C@H](C)[C@H](NC(=O)[C@H](C)NC(=O)CNC(=O)[C@H](Cc1ccccc1)NC(=O)[C@H](CC(N)=O)NC(=O)[C@@H]1CCCN1C(=O)[C@H](CO)NC(=O)[C@H](CO)NC(=O)[C@H](Cc1c[nH]cn1)NC(=O)[C@H](CCCNC(=N)N)NC(=O)[C@H](CC(C)C)NC(=O)[C@H](Cc1ccccc1)NC(=O)[C@H](CC(N)=O)NC(=O)[C@H](C)NC(=O)[C@H](CC(C)C)NC(=O)[C@H](CCCNC(=N)N)NC(=O)[C@H](CCC(N)=O)NC(=O)[C@@H](NC(=O)[C@H](C)NC(=O)[C@@H]1CSSC[C@H](NC(=O)[C@@H](N)CCCCNC(=O)COCCOCCNC(=O)CC[C@H](NC(=O)CCCCCCCCCCCCCCCCCCC(=O)O)C(=O)O)C(=O)N[C@@H](CC(N)=O)C(=O)N[C@@H]([C@@H](C)O)C(=O)N[C@@H](C)C(=O)N[C@@H]([C@@H](C)O)C(=O)N1)[C@@H](C)O)C(=O)N1CCC[C@H]1C(=O)N[C@@H](CO)C(=O)N[C@@H](CO)C(=O)N[C@H](C(=O)N[C@@H](CC(N)=O)C(=O)N[C@H](C(=O)NCC(=O)N1CCC[C@H]1C(=O)N[C@@H](Cc1c[nH]cn1)C(=O)N[C@H](C(=O)N[C@@H](Cc1ccc(O)cc1)C(N)=O)[C@@H](C)O)C(C)C)[C@@H](C)O` [Example 58] (H-K([AEEA-γGlu-C20 diacid])CNTATCATQRLANFLRHSSPNFGAIPSSTNVGPHTY-NH2; disulfide 2-7), the 50% effective concentration (EC50) in data set [1] came to 0.047 nM. For the same molecule, the EC50 in data set [2] turned out to be 1.03 nM. Also, in data set [4], the “Solubility pH 6.5 Concentration (μM)” value is reported as “≧200 μM”, the “Solubility pH 7.0 Concentration (μM)” value is reported as “≧200 μM”, the “Solubility pH 7.5 Concentration (μM)” value turned out to be 96 μM and the “Solubility pH 8.0 Concentration (μM)” value came to 48 μM. Also, the half-inhibitory concentration (IC50) on human amylin receptor came out at 0.088 nM. Besides, in data set [3], the half-inhibitory concentration (IC50) amounted to 9.63 nM.
For `CC[C@H](C)[C@H](NC(=O)[C@H](C)NC(=O)CNC(=O)[C@H](Cc1ccccc1)NC(=O)[C@H](CC(N)=O)NC(=O)[C@@H]1CCCN1C(=O)[C@H](CO)NC(=O)[C@H](CO)NC(=O)[C@H](Cc1c[nH]cn1)NC(=O)[C@H](CCCNC(=N)N)NC(=O)[C@H](CC(C)C)NC(=O)[C@H](Cc1ccccc1)NC(=O)[C@H](Cc1c[nH]cn1)NC(=O)[C@H](C)NC(=O)[C@H](CC(C)C)NC(=O)[C@H](CCCNC(=N)N)NC(=O)[C@H](CCC(N)=O)NC(=O)[C@@H](NC(=O)[C@H](C)NC(=O)[C@@H]1CSSC[C@H](NC(=O)[C@H](CCCNC(=N)N)NC(=O)CNC(=O)CC[C@H](NC(=O)CCCCCCCCCCCCCCCCCCC(=O)O)C(=O)O)C(=O)N[C@@H](CC(N)=O)C(=O)N[C@@H]([C@@H](C)O)C(=O)N[C@@H](C)C(=O)N[C@@H]([C@@H](C)O)C(=O)N1)[C@@H](C)O)C(=O)N1CCC[C@H]1C(=O)N[C@@H](CO)C(=O)N[C@@H](CO)C(=O)N[C@H](C(=O)N[C@@H](CC(N)=O)C(=O)N[C@H](C(=O)NCC(=O)N[C@@H](Cc1c[nH]cn1)C(=O)N[C@@H](CC(N)=O)C(=O)N[C@H](C(=O)N[C@@H](Cc1ccc(O)cc1)C(N)=O)[C@@H](C)O)C(C)C)[C@@H](C)O` [Example 100] ({C20 diacid-γGlu}-GRCNTATCATQRLAHFLRHSSPNFGAIPSSTNVGHNTY-NH2; disulfide 3-8), the “Ratio hCT/hAmylin funct.” value in data set [1] (Table 6, human functional selectivity (hCTR EC50 / hAmylin-R EC50)) worked out at 6.8; in data set [1] (Table 6a, human functional selectivity (hCTR EC50 / hAmylin-R EC50), at least 5), 6.8; in data set [1] (Table 6j, hCTR funct. EC50 / hAmylin-R funct. EC50), 6.8; in data set [1] (Table 6k, hCTR funct. EC50 / hAmylin-R funct. EC50) it was 6.8. The EC50 in data set [1] was found to be 0.253 nM; in data set [2], 1.73 nM. Besides, the “Solubility pH 6.5 Concentration (μM)” value in data set [4] is given as “≧200 μM”. Moreover, the “Solubility pH 7.0 Concentration (μM)” value in data set [4] was 109 μM. Also, the “Solubility pH 7.5 Concentration (μM)” value in data set [4] was 26 μM. Moreover, the “Solubility pH 8.0 Concentration (μM)” value in data set [4] amounted to 31 μM. The IC50 amounted to 1.02 nM at human amylin receptor and 66.3 nM in data set [3].
